{"source": "ChEMBL document CHEMBL4665751", "about": "“Discovery of Clinical Candidate (5-(3-(4-Chlorophenoxy)prop-1-yn-1-yl)-3-hydroxypicolinoyl)glycine, an Orally Bioavailable Prolyl Hydroxylase Inhibitor for the Treatment of Anemia” (J Med Chem, 2020)", "key": {"[1]": {"assay": "Genotoxicity in Salmonella typhimurium TA100 at 62.5 to 1000 ug incubated for 48 to 50 hrs in presence of S9 fraction by Ames test", "format": "toxicity, subcellular, Salmonella enterica subsp. enterica serovar Typhimurium", "conditions": "dose 62.5-1000 µg, time 48-50 hrs"}, "[2]": {"assay": "Genotoxicity in Salmonella typhimurium TA98 at 62.5 to 1000 ug incubated for 48 to 50 hrs in presence of S9 fraction by Ames test", "format": "toxicity, subcellular, Salmonella enterica subsp. enterica serovar Typhimurium", "conditions": "dose 62.5-1000 µg, time 48-50 hrs"}, "[3]": {"assay": "Acute toxicity in male Sprague-Dawley rat assessed as change in ratio of epididymis to body weight at 15 to 200 mg/kg, po administered every alternate days for 2 weeks measured on day 14", "format": "organism-based", "conditions": "in vivo, 336 h, dose 15-200 mg/kg, time 14 day"}, "[4]": {"assay": "Acute toxicity in male Sprague-Dawley rat assessed as change in ratio of testis to body weight at 15 to 200 mg/kg, po administered every alternate days for 2 weeks measured on day 14", "format": "organism-based", "conditions": "in vivo, 336 h, dose 15-200 mg/kg, time 14 day"}, "[5]": {"assay": "Acute toxicity in Sprague-Dawley rat assessed as change in ratio of kidney to body weight at 15 to 200 mg/kg, po administered every alternate days for 2 weeks measured on day 14", "format": "organism-based", "conditions": "in vivo, 336 h, dose 15-200 mg/kg, time 14 day"}, "[6]": {"assay": "Acute toxicity in Sprague-Dawley rat assessed as change in ratio of adrenal gland to body weight at 15 to 200 mg/kg, po administered every alternate days for 2 weeks measured on day 14", "format": "organism-based", "conditions": "in vivo, 336 h, dose 15-200 mg/kg, time 14 day"}, "[7]": {"assay": "Acute toxicity in Sprague-Dawley rat assessed as change in body weight at 15 to 200 mg/kg, po administered every alternate days for 14 days", "format": "organism-based", "conditions": "in vivo, 336 h, dose 15-200 mg/kg, time 14 day"}, "Mus musculus [8]": {"tested_on": "Mus musculus", "assay": "Antianemic activity in cisplatin-induced C57BL/6 mouse anemia model assessed as increase in haemoglobin level administered orally every other day for 1 month", "format": "functional, organism-based", "conditions": "dose mg/kg 10-25, time 1.0 months"}, "Cytochrome P450 3A4": {"molecular_target": "Cytochrome P450 3A4 (Homo sapiens, UniProt P08684)", "sequence (P08684 whole entry)": "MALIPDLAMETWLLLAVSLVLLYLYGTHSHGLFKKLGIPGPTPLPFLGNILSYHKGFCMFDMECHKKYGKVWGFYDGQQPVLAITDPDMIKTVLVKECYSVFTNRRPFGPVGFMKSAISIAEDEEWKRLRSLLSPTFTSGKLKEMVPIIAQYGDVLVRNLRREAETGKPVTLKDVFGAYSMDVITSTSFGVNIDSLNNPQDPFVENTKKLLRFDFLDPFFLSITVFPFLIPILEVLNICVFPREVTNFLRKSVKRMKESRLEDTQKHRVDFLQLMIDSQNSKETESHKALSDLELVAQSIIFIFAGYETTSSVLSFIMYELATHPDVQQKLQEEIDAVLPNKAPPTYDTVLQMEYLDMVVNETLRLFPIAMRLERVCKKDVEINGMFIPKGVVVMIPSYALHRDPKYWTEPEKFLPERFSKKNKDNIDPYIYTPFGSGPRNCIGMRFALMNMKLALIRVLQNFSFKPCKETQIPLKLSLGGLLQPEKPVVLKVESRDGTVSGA", "assay": "Inhibition of CYP3A4 (unknown origin) using testosterone as substrate preincubated for 5 mins followed by addition of NADPH measured after 20 mins by LC-MS/MS analysis", "format": "ADME"}, "[9]": {"assay": "Half-life in mouse liver microsome at 1 uM preincubated for 5 mins followed by NADPH addition measured up to 120 mins by LC-MS/MS analysis", "format": "ADME", "conditions": "liver microsomes, time <=125 min"}, "[10]": {"assay": "Intrinsic clearance in human liver microsome at 1 uM preincubated for 5 mins followed by NADPH addition measured up to 120 mins by LC-MS/MS analysis", "format": "ADME", "conditions": "microsomes, 2 h, time <=125 min"}, "[11]": {"assay": "Intrinsic clearance in dog liver microsome at 1 uM preincubated for 5 mins followed by NADPH addition measured up to 120 mins by LC-MS/MS analysis", "format": "ADME, Canis lupus familiaris", "conditions": "microsomes, 2 h, time <=125 min"}, "[12]": {"assay": "Intrinsic clearance in mouse liver microsome at 1 uM preincubated for 5 mins followed by NADPH addition measured up to 120 mins by LC-MS/MS analysis", "format": "ADME", "conditions": "microsomes, 2 h, time <=125 min"}, "[13]": {"assay": "MRT (0 to infinity) in Beagle dog at 0.5 mg/kg, iv by LC-MS/MS analysis", "format": "ADME, organism-based, Canis lupus familiaris", "conditions": "in vivo"}, "[14]": {"assay": "Apparent volume of distribution in Beagle dog at 0.5 mg/kg, iv by LC-MS/MS analysis", "format": "ADME, organism-based, Canis lupus familiaris", "conditions": "in vivo, read-out: Vz"}, "[15]": {"assay": "AUC (0 to infinity) in Beagle dog at 0.5 mg/kg, iv by LC-MS/MS analysis", "format": "ADME, organism-based, Canis lupus familiaris", "set-up": "time infinity, route intravenous, dose 0.5 mg/kg", "conditions": "in vivo"}, "[16]": {"assay": "MRT (0 to infinity) in Beagle dog at 2 mg/kg, ig by LC-MS/MS analysis", "format": "ADME, organism-based, Canis lupus familiaris", "conditions": "in vivo, po"}, "[17]": {"assay": "Apparent volume of distribution in Beagle dog at 2 mg/kg, ig by LC-MS/MS analysis", "format": "ADME, organism-based, Canis lupus familiaris", "conditions": "in vivo, po"}, "[18]": {"assay": "Clearance in Beagle dog at 2 mg/kg, ig by LC-MS/MS analysis", "format": "ADME, organism-based, Canis lupus familiaris", "conditions": "in vivo, po"}, "[19]": {"assay": "AUC (0 to t) in Beagle dog at 2 mg/kg, ig by LC-MS/MS analysis", "format": "ADME, organism-based, Canis lupus familiaris", "set-up": "dose 2 mg/kg", "conditions": "in vivo, po"}, "[20]": {"assay": "MRT (0 to infinity) in Sprague-Dawley rat at 1 mg/kg, iv by LC-MS/MS analysis", "format": "ADME, organism-based", "conditions": "in vivo"}, "[21]": {"assay": "Half-life in Sprague-Dawley rat at 1 mg/kg, iv by LC-MS/MS analysis", "format": "ADME, organism-based", "conditions": "in vivo"}, "[22]": {"assay": "AUC (0 to infinity) in Sprague-Dawley rat at 1 mg/kg, iv by LC-MS/MS analysis", "format": "ADME, organism-based", "set-up": "time infinity, route intravenous, dose 1 mg/kg", "conditions": "in vivo"}, "[23]": {"assay": "Oral bioavailability in Sprague-Dawley rat at 2 mg/kg by LC-MS/MS analysis", "format": "ADME, organism-based", "conditions": "in vivo"}, "[24]": {"assay": "MRT (0 to infinity) in Sprague-Dawley rat at 2 mg/kg, ig by LC-MS/MS analysis", "format": "ADME, organism-based", "conditions": "in vivo, po"}, "[25]": {"assay": "Apparent volume of distribution in Sprague-Dawley rat at 2 mg/kg, ig by LC-MS/MS analysis", "format": "ADME, organism-based", "conditions": "in vivo, po"}, "[26]": {"assay": "AUC (0 to t) in Sprague-Dawley rat at 2 mg/kg, ig by LC-MS/MS analysis", "format": "ADME, organism-based", "set-up": "dose 2 mg/kg", "conditions": "in vivo, po"}, "[27]": {"assay": "AUC (0 to infinity) in Sprague-Dawley rat at 2 mg/kg, ig by LC-MS/MS analysis", "format": "ADME, organism-based", "set-up": "time infinity, route […], dose 2 mg/kg", "conditions": "in vivo, po"}, "[28]": {"assay": "Tmax in Sprague-Dawley rat at 2 mg/kg, ig by LC-MS/MS analysis", "format": "ADME, organism-based", "conditions": "in vivo, po"}, "Mus musculus [29]": {"tested_on": "Mus musculus", "assay": "Induction of erythropoiesis in po dosed C57BL/6 mouse assessed as increase in red blood cell count administered thrice for 3 days measured 4 hrs post last dose", "format": "functional, organism-based", "conditions": "dose mg/kg 5-50, time 72.0 hrs"}, "Egl nine homolog 1": {"molecular_target": "Egl nine homolog 1 (Homo sapiens, UniProt Q9GZT9)", "sequence (Q9GZT9 2-426 limits assumed)": "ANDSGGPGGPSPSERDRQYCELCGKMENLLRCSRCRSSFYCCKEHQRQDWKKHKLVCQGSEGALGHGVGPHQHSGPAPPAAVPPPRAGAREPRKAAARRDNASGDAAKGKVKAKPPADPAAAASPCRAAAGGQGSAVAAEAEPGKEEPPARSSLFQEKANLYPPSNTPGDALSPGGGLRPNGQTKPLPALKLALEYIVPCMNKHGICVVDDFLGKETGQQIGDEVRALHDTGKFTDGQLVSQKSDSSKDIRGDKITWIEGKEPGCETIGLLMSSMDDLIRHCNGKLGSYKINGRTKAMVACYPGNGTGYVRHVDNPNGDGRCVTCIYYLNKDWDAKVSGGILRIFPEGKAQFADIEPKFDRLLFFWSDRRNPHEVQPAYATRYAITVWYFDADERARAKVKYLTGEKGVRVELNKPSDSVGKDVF", "assay": "Inhibition of PHD2 in human MCF7 cells assessed as upregulation of HIFalpha expression at 25 uM incubated for 24 hrs by firefly/renilla luciferase reporter gene assay relative to control", "format": "cell-based"}, "Hep 3B2": {"tested_on": "Hep 3B2", "assay": "Cytotoxicity against human Hep3B cells assessed as reduction in cell viability at 10 to 100 uM incubated for 72 hrs by MTT assay", "format": "cell-based", "conditions": "hep 3b2, 72 h, dose 10-100 µM"}, "L02": {"tested_on": "L02", "assay": "Cytotoxicity against human L02 cells assessed as reduction in cell viability at 10 to 100 uM incubated for 72 hrs by MTT assay", "format": "cell-based", "conditions": "l02, 72 h, dose 10-100 µM"}, "Homo sapiens [30]": {"species_on_record": "Homo sapiens", "assay": "Selectivity index, ratio of IC50 for human ERG expressed in HEK293 cells by PatchLiner assay to IC50 for PHD2 (unknown origin) by O-phenyl enediamine(OPD) based fluorescence assay", "format": "cell-based"}, "Homo sapiens [31]": {"species_on_record": "Homo sapiens", "assay": "Selectivity index, ratio of IC50 for KDM6B (unknown origin) in presence of peptide substrate incubated for 30 mins by alpha screen assay to IC50 for PHD2 (unknown origin) by O-phenyl enediamine(OPD) based fluorescence assay"}, "Homo sapiens [32]": {"species_on_record": "Homo sapiens", "assay": "Selectivity index, ratio of IC50 for KDM3A (unknown origin) in presence of peptide substrate incubated for 30 mins by alpha screen assay to IC50 for PHD2 (unknown origin) by O-phenyl enediamine(OPD) based fluorescence assay"}, "Homo sapiens [33]": {"species_on_record": "Homo sapiens", "assay": "Selectivity index, ratio of IC50 for PHD3 (unknown origin) to IC50 for PHD2 (unknown origin) by O-phenyl enediamine(OPD) based fluorescence assay"}, "Homo sapiens [34]": {"species_on_record": "Homo sapiens", "assay": "Selectivity index, ratio of IC50 for PHD1 (unknown origin) by O-phenyl enediamine(OPD) based fluorescence assay to IC50 for PHD2 (unknown origin) by O-phenyl enediamine(OPD) based fluorescence assay"}}, "note": "Calls of active or inactive are those of the source. The calls are words filed in the database; no cut-off is given here."}
{"smiles": "O=C(O)CNC(=O)c1ncc(C#CCOc2ccc(Cl)cc2)cc1O", "note": "[DDO-3055]", "values": [{"measurement": "Activity", "setting": "[1]", "value": "Non-Toxic"}, {"measurement": "Activity", "setting": "[2]", "value": "Non-Toxic"}, {"measurement": "Activity", "setting": "[3]", "value": "Non-Toxic"}, {"measurement": "Activity", "setting": "[4]", "value": "Non-Toxic"}, {"measurement": "Activity", "setting": "[5]", "value": "Non-Toxic"}, {"measurement": "Activity", "setting": "[6]", "value": "Non-Toxic"}, {"measurement": "Activity", "setting": "[7]", "value": "Non-Toxic"}, {"measurement": "Activity", "setting": "Mus musculus [8]", "value": "Active"}, {"measurement": "IC50", "setting": "Cytochrome P450 3A4", "value": "> 30", "unit": "µM"}, {"measurement": "half-life at 1 µM", "setting": "[9]", "value": "> 2.32", "unit": "h"}, {"measurement": "CLH", "setting": "[10]", "value": "< 14.4", "unit": "mL/day/kg"}, {"measurement": "CLH", "setting": "[11]", "value": "< 14.4", "unit": "mL/day/kg"}, {"measurement": "CLH", "setting": "[12]", "value": "< 14.4", "unit": "mL/day/kg"}, {"measurement": "MRT inf", "setting": "[13]", "value": 2.27, "unit": "h"}, {"measurement": "Vd", "setting": "[14]", "value": 3.34, "unit": "L/kg"}, {"measurement": "AUC(0-inf)", "setting": "[15]", "value": 636, "unit": "ng·h/mL"}, {"measurement": "MRT inf", "setting": "[16]", "value": 4.69, "unit": "h"}, {"measurement": "Vz", "setting": "[17]", "value": 8.417, "unit": "L/kg"}, {"measurement": "CL/F", "setting": "[18]", "value": 36700, "unit": "mL/day/kg"}, {"measurement": "AUC(0-t)", "setting": "[19]", "value": 1360, "unit": "ng·h/mL"}, {"measurement": "MRT inf", "setting": "[20]", "value": 3.44, "unit": "h"}, {"measurement": "half-life", "setting": "[21]", "value": 8.43, "unit": "h"}, {"measurement": "AUC(0-inf)", "setting": "[22]", "value": 4860, "unit": "ng·h/mL"}, {"measurement": "bioavailability", "setting": "[23]", "value": 55.7, "unit": "%"}, {"measurement": "MRT inf", "setting": "[24]", "value": 9.43, "unit": "h"}, {"measurement": "Vz", "setting": "[25]", "value": 3.409, "unit": "L/kg"}, {"measurement": "AUC(0-t)", "setting": "[26]", "value": 4800, "unit": "ng·h/mL"}, {"measurement": "AUC(0-inf)", "setting": "[27]", "value": 5420, "unit": "ng·h/mL"}, {"measurement": "Tmax", "setting": "[28]", "value": 0.63, "unit": "h"}, {"measurement": "Activity", "setting": "Mus musculus [29]", "value": "Dose-dependent effect"}, {"measurement": "fold change (FC)", "setting": "Egl nine homolog 1", "value": 4}, {"measurement": "Activity", "setting": "Hep 3B2", "value": "Non-Toxic"}, {"measurement": "Activity", "setting": "L02", "value": "Non-Toxic"}, {"measurement": "Ratio IC50", "setting": "Homo sapiens [30]", "value": "> 467"}, {"measurement": "Ratio IC50", "setting": "Homo sapiens [31]", "value": "> 156"}, {"measurement": "Ratio IC50", "setting": "Homo sapiens [32]", "value": "> 1560"}, {"measurement": "Ratio IC50", "setting": "Homo sapiens [33]", "value": 2.6}, {"measurement": "Ratio IC50", "setting": "Homo sapiens [34]", "value": 29}]}
